The text below walks through data of patent US12642271B2, “Active compound combinations comprising a (thio)carboxamide derivative and a fungicidal compound” (Bayer CropScience Aktiengesellschaft, priority 2011, dated 2026).

One assay deals with Phytophthora infestans. The assay is described as follows: whole plant or invertebrate. The format is in vivo.
The subject of another assay is Alternaria solani. The assay is described as follows: Alternaria test (tomatoes)/preventive. The format is in vivo.
The next assay has as its system Sphaerotheca fuliginea. The assay is described as follows: Sphaerotheca test (cucumbers)/preventive. The format is in vivo.
Assay [1] deals with Blumeria graminis f.sp. hordei. In words: Blumeria test (barley)/preventive. The format is in vivo.
In a further assay the test system is Leptosphaeria nodorum. In words: Leptosphaeria nodorum test (wheat)/preventive. The format is in vivo.
The test system of the next assay is Puccinia triticina. The assay is described as follows: Puccinia triticina-test (wheat)/preventive. The format is in vivo. The note with it: preventive, evaluated 8 days after inoculation.
A further assay has as its system Venturia inaequalis. In words: Venturia test (apples)/preventive. The settings on record: for pest or weed control at 1 ppm: 1 ppm a.i.
Assay [2] concerns Fusarium nivale (var. majus). In words: Fusarium nivale (var. majus)-test (wheat)/preventive. The note with it: for pest or weed control at 20 ppm / pest or weed control at 80 ppm / pest or weed control at 40 ppm / pest or weed control at 10 ppm: Microdochium nivale, in Triticum aestivum, 120 h; for pest or weed control at 20 ppm: 20 ppm a.i.; for pest or weed control at 80 ppm: 80 ppm a.i.
Method: After the spray coating has been dried, the plants are slightly injured by using a sandblast and afterwards they are sprayed with a conidia suspension of Fusarium nivale (var. majus).
The plants are placed in the greenhouse under a translucent incubation cabinet at a temperature of approximately 10° C. and a relative atmospheric humidity of approximately 100%.
The test is evaluated 5 days after the inoculation.

A further assay has as its system Septoria tritici. The assay is described as follows: Septoria tritici-test (wheat)/preventive. The format is in vivo. The settings on record: preventive, evaluated 21 days after inoculation; for pest or weed control at 10 ppm: Zymoseptoria tritici, 504 h, read-out: Efficacy in % found.
[3] abbreviates: read-out: Efficacy in % found, Table 8c.
Where [4] appears, read: read-out: Efficacy in % found, Table 8e.
Setting [5] is: Phytophthora infestans, 72 h, read-out: Efficacy in % found.

Where “and” joins values, the source holds several entries; their conditions need not be identical. Equal values may be shown once. Read-outs that look alike come from different tables or passages of the source.

Method for Venturia inaequalis: After the spray coating has dried on, the plants are inoculated with an aqueous conidia suspension of the causal agent of apple scab (Venturia inaequalis) and then remain for 1 day in an incubation cabinet at approximately 20° C. and a relative atmospheric humidity of 100%.
The plants are then placed in a greenhouse at approximately 21° C. and a relative atmospheric humidity of approximately 90%.
The test is evaluated 10 days after the inoculation.

With mancozeb [B5.23], the “Efficacy in % found” value stood at 45% in the assay with Phytophthora infestans (Table 1c, 50 ppm a.i.); 56% with Alternaria solani (Table 3a, 50 ppm a.i.); 0% in the assay with Alternaria solani (Table 3d, 50 ppm); 0% in the assay with Sphaerotheca fuliginea (Table 4a, 25 ppm a.i.); 0% in assay [1] (Table 6c, 400 ppm); 0% in the assay with Leptosphaeria nodorum (Table 9e, 100 ppm a.i.).
As to `CC1(C)CCC(Cc2ccc(Cl)cc2)C1(O)Cn1cncn1` (stereo not shown) [B1.30, metconazole], in the assay with Sphaerotheca fuliginea (Podosphaera fuliginea, 168 h, Table 4d, 5 ppm a.i., read-out: Efficacy in % found), the pest or weed control at 5 ppm is 77%. For the same molecule, the pest or weed control at 80 ppm was 44% in the assay with Leptosphaeria nodorum (Parastagonospora nodorum, 192 h, application rate 80 ppm, wheat, preventive, evaluated 8 days after inoculation, read-out: Efficacy in % found) and 0% in assay [2] (setting [4]). Besides, the pest or weed control at 20 ppm in the assay with Puccinia triticina (Puccinia triticina, 192 h, application rate 20 ppm a.i., read-out: Efficacy in % found) was 44%; in [2] (setting [3]) it was 13%. Also, the pest or weed control at 1 ppm in the assay with Venturia inaequalis (Venturia inaequalis, 240 h, read-out: Efficacy in % found, Table 2c) came out at 38%.
In the case of folpet [B5.16], the “Efficacy in % found” value with Alternaria solani (Table 3e, 12.5 ppm) is on record as 39%; in the assay on Sphaerotheca fuliginea (Table 4a, 25 ppm a.i.), 0%; in the assay on Leptosphaeria nodorum (application rate 400 ppm a.i., wheat, preventive, evaluated 8 days after inoculation), 44%; in the assay with Venturia inaequalis (Table 2a, 12.5 ppm a.i.), 47%; in the assay on Venturia inaequalis (Table 2e, 10 ppm a.i.) it was 45%; in assay [2] (Table 8f, 200 ppm a.i.), 50%.
Take `Cc1ccc(C(C)C)c(CN(C(=O)c2c(C(F)F)nn(C)c2F)C2CC2)c1` [A12, N-cyclopropyl-3-(difluoromethyl)-5-fluoro-N-(2-isopropyl-5-methylbenzyl)-1-methyl-1H-pyrazole-4-carboxamide]: the pest or weed control at 10 ppm in [1] (Blumeria graminis, 168 h, Table 6f, 10 ppm a.i., read-out: Efficacy in % found) was determined as 50%. The pest or weed control at 40 ppm in the assay with Puccinia triticina (Puccinia triticina, 192 h, application rate 40 ppm a.i., read-out: Efficacy in % found) worked out at 89%.
`Cn1c(=O)c2sc3c(=O)n(C)c(=O)c3sc2c1=O` [B15.60, 2,6-dimethyl-1H,5H-[1,4]dithiino[2,3-c:5,6-c′]dipyrrole-1,3,5,7(2H,6H)-tetrone]: in the assay on Alternaria solani (Alternaria solani, 72 h, Table 3d, 50 ppm, read-out: Efficacy in % found), the pest or weed control at 50 ppm came to 0%.
Consider spiroxamine [B1.46], for which the “Efficacy in % found” value in the assay on Sphaerotheca fuliginea (Table 4b, 25 ppm a.i.) was 0%; in the assay on Leptosphaeria nodorum (Table 9a, 200 ppm a.i.), 29%; in the assay with Leptosphaeria nodorum (application rate 200 ppm, wheat, preventive, evaluated 8 days after inoculation), 22% and 40%; in the assay with Puccinia triticina (application rate 200 ppm a.i.) it was 0%.
Regarding `Cn1cc(C(=O)Nc2cccc3c2[C@@H]2CC[C@H]3C2=C(Cl)Cl)c(C(F)F)n1` (racemic) [B2.29, benzovindiflupyr], the “Efficacy in % found” value is listed as 21% in the assay on Alternaria solani (Table 3e, 0.5 ppm); 76% in the assay with Venturia inaequalis (Table 2e, 0.1 ppm a.i.); 25% in [2] (Table 8f, 120 ppm a.i.).
For `CC(C)CC(C)c1sccc1NC(=O)c1cn(C)nc1C(F)(F)F` (stereo not shown) [B2.21, penthiopyrad], the pest or weed control at 0.5 ppm in the assay on Sphaerotheca fuliginea (Podosphaera fuliginea, 168 h, Table 4d, 0.5 ppm a.i., read-out: Efficacy in % found) turned out to be 0%; in the assay on Venturia inaequalis (Venturia inaequalis, 240 h, read-out: Efficacy in % found, Table 2d, 0.5 ppm a.i.) it was 0%. Moreover, the pest or weed control at 20 ppm in assay [1] (Blumeria graminis, 168 h, Table 6a, 20 ppm a.i., read-out: Efficacy in % found) was 20%; in [2] (setting [3]), 13%. Also, the pest or weed control at 80 ppm in the assay with Puccinia triticina (Puccinia triticina, 192 h, application rate 80 ppm a.i., read-out: Efficacy in % found) amounted to 78%; in assay [2] (setting [4]), 0%.
`CCCCCCCCc1c(CC)nc2ncnn2c1N` [B3.1, ametoctradin]: the “Efficacy in % found” value with Phytophthora infestans (Table 1a, 5 ppm a.i.) is reported as 48%.
As to `CCCC1COC(Cn2cncn2)(c2ccc(Cl)cc2Cl)O1` (stereo not shown) [B1.40, propiconazole], the pest or weed control at 2 ppm in the assay with Alternaria solani (Alternaria solani, 72 h, Table 3c, 2 ppm, read-out: Efficacy in % found) was found to be 0%. The pest or weed control at 20 ppm in the assay on Leptosphaeria nodorum (Parastagonospora nodorum, 192 h, application rate 20 ppm, wheat, preventive, evaluated 8 days after inoculation, read-out: Efficacy in % found) is 0%; in assay [2] (read-out: Efficacy in % found, Table 8b), 0%.
On to `Cn1cc(C(=O)Nc2ccc(F)cc2-c2ccc(Cl)c(Cl)c2)c(C(F)F)n1` [B2.1, bixafen], for which the “Efficacy in % found” value in the assay with Sphaerotheca fuliginea (Table 4d, 0.5 ppm a.i.) is listed as 67%; with Leptosphaeria nodorum (Table 9a, 40 ppm a.i.), 0%; with Leptosphaeria nodorum (application rate 40 ppm, wheat, preventive, evaluated 8 days after inoculation), 0%; with Puccinia triticina (application rate 40 ppm a.i.), 22%; in the assay on Septoria tritici (application rate 10 ppm a.i.), 29%; in the assay with Septoria tritici (application rate 40 ppm a.i.), 29%. In addition, in assay [2] (Table 8b, 10 ppm a.i.), the “Efficacy in % found” value was determined as 14%.
As to `N#Cc1ccccc1NC(=O)c1snc(Cl)c1Cl` [B6.2, isotianil], the “Efficacy in % found” value was determined as 27% in the assay with Alternaria solani (Table 3b, 50 ppm) and 38% in assay [1] (Table 6b, 100 ppm a.i.).
For the molecule propamocarb-HCl [B10.10], the “Efficacy in % found” value is 0% with Alternaria solani (Table 3a, 50 ppm a.i.); 0% in the assay with Sphaerotheca fuliginea (Table 4a, 50 ppm a.i.); 70% with Sphaerotheca fuliginea (Table 4d, 50 ppm a.i.); 13% in [1] (Table 6c, 400 ppm); 0% with Venturia inaequalis (Table 2a, 50 ppm a.i.).
For the molecule `O=C(NCc1ncc(C(F)(F)F)cc1Cl)c1c(Cl)cccc1Cl` [B4.6, fluopicolide], the “Efficacy in % found” value was determined as 13% in the assay with Phytophthora infestans (Table 1a, 1 ppm a.i.); 13% in assay [1] (Table 6f, 400 ppm a.i.); 17% in the assay with Leptosphaeria nodorum (Table 9c, 100 ppm a.i.).
For the molecule `N#Cc1c(Cl)c(Cl)c(Cl)c(C#N)c1Cl` [B5.4, chlorothalonil], the pest or weed control at 50 ppm with Phytophthora infestans (setting [5]) was found to be 75%; in the assay with Alternaria solani (Alternaria solani, 72 h, Table 3a, 50 ppm a.i., read-out: Efficacy in % found) it was 35%. Also, the pest or weed control at 12.5 ppm in the assay on Venturia inaequalis (Venturia inaequalis, 240 h, read-out: Efficacy in % found, Table 2a, 12.5 ppm a.i.) worked out at 35%.
`CC(C)c1ccc(F)cc1CN(C(=O)c1c(C(F)F)nn(C)c1F)C1CC1` [A7, N-cyclopropyl-3-(difluoromethyl)-5-fluoro-N-(5-fluoro-2-isopropylbenzyl)-1-methyl-1H-pyrazole-4-carboxamide]: the pest or weed control at 10 ppm in the assay on Septoria tritici (application rate 10 ppm a.i.) turned out to be 71%.
`COC(=O)N(OC)c1ccccc1COc1ccn(-c2ccc(Cl)cc2)n1` [B3.17, pyraclostrobin]: the pest or weed control at 1 ppm is 53% with Phytophthora infestans (setting [5]) and 79% in the assay with Venturia inaequalis (Venturia inaequalis, 240 h, read-out: Efficacy in % found, Table 2b). For the same molecule, the pest or weed control at 2 ppm with Sphaerotheca fuliginea (Podosphaera fuliginea, 168 h, Table 4d, 2 ppm a.i., read-out: Efficacy in % found) was 0%. The pest or weed control at 40 ppm in [1] (Blumeria graminis, 168 h, Table 6b, 40 ppm a.i., read-out: Efficacy in % found) stood at 20%; with Leptosphaeria nodorum (Parastagonospora nodorum, 192 h, application rate 40 ppm, wheat, preventive, evaluated 8 days after inoculation, read-out: Efficacy in % found) it was 57%; in assay [2] (read-out: Efficacy in % found, Table 8a, 40 ppm), 93%. Also, the pest or weed control at 10 ppm in assay [2] (read-out: Efficacy in % found, Table 8e, 10 ppm a.i.) was 57%; in [2] (read-out: Efficacy in % found, Table 8d, 10 ppm a.i.) it was 71%.
On to propineb [B5.29], for which the “Efficacy in % found” value is reported as 50% in the assay with Phytophthora infestans (Table 1c, 50 ppm a.i.); 33% in the assay with Alternaria solani (Table 3a, 50 ppm a.i.); 0% in the assay on Alternaria solani (Table 3d, 50 ppm); 0% in the assay on Sphaerotheca fuliginea (Table 4a, 50 ppm a.i.); 70% with Sphaerotheca fuliginea (Table 4d, 50 ppm a.i.); 13% in assay [1] (Table 6c, 400 ppm).
Take `Fc1ccc([C@]2(Cn3cncn3)O[C@H]2c2ccccc2Cl)cc1` (racemic) [B1.12, epoxiconazole]: the pest or weed control at 10 ppm amounted to 0% with Leptosphaeria nodorum (Parastagonospora nodorum, 192 h, Table 9a, 10 ppm a.i., read-out: Efficacy in % found); 29% in the assay on Leptosphaeria nodorum (Parastagonospora nodorum, 192 h, application rate 10 ppm, wheat, preventive, evaluated 8 days after inoculation, read-out: Efficacy in % found); 0% with Septoria tritici (application rate 10 ppm a.i.). For the same molecule, the pest or weed control at 40 ppm in [2] (read-out: Efficacy in % found, Table 8e, 40 ppm a.i.) amounted to 0%.
On to `CCO[PH](=O)O` [B15.24, fosetyl-Al], for which the “Efficacy in % found” value with Alternaria solani (Table 3a, 50 ppm a.i.) stood at 40%; in the assay on Sphaerotheca fuliginea (Table 4a, 50 ppm a.i.), 0%; in the assay on Sphaerotheca fuliginea (Table 4d, 12.5 ppm a.i.), 0%; in the assay on Venturia inaequalis (Table 2a, 50 ppm a.i.), 0%.
As for `COCC(=O)N(c1c(C)cccc1C)[C@H](C)C(=O)OC` [B12.10, mefenoxam], the “Efficacy in % found” value is recorded as 25% in [1] (Table 6f, 400 ppm a.i.) and 0% with Leptosphaeria nodorum (application rate 100 ppm, wheat, preventive, evaluated 8 days after inoculation).
Take `CCN(C)C=Nc1cc(C)c(Oc2nc(Cc3ccc(Cl)cc3)ns2)cc1C` [B15.78, N′-(4-{[3-(4-chlorobenzyl)-1,2,4-thiadiazol-5-yl]oxy}-2,5-dimethylphenyl)-N-ethyl-N-methylimidoformamide]: the pest or weed control at 62.5 ppm in the assay on Puccinia triticina (Puccinia triticina, 192 h, application rate 62.5 ppm a.i., read-out: Efficacy in % found) is 57%. In the assay on Venturia inaequalis (Venturia inaequalis, 240 h, read-out: Efficacy in % found, Table 2f, 5 ppm a.i.), the pest or weed control at 5 ppm stood at 16%.
